EC50 data for 42 compounds are collected here from BindingDB's records for doi:10.7270/Q2028PXQ (The Scripps Research Institute Molecular Screening Center, 2007).

Some results are limits rather than exact numbers.

As a reminder, the EC50 is the concentration that produces a half-maximal response. Read a high EC50 as weaker potency.

Chain of Steroidogenic factor 1 (Q13285 whole entry): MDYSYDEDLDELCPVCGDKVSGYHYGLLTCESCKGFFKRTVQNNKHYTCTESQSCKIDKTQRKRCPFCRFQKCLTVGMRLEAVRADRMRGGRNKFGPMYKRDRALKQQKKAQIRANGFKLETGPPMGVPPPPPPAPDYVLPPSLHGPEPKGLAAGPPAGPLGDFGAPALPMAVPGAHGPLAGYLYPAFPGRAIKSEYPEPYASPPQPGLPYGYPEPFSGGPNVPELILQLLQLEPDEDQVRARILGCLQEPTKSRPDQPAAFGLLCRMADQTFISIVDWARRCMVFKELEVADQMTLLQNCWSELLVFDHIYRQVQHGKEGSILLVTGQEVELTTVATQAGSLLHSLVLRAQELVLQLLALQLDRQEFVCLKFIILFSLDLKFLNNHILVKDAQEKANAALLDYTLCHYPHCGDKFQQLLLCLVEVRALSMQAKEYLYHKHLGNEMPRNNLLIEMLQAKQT

One test concerns the target Steroidogenic factor 1 (Homo sapiens, UniProt Q13285). Nature of the test: SF-1 driven luciferase reporter response, dose response, counter-screen for RORA activator project, CHO-K1 cells (AID 695).
Conditions: not given
Background: In a reporter assay the amount or activity of a reporter protein is the signal.
Compound `O=C1OC(N2CCN(Cc3ccccc3)CC2)c2ccccc21` (configuration not stated) [3-(4-benzylpiperazin-1-yl)-3H-2-benzofuran-1-one] displayed an EC50 above 99 µM.
In turn, `Cc1cc(NC(=O)c2oc3ccccc3c2C)ccc1-n1cnnn1` [3-Methyl-benzofuran-2-carboxylic acid (3-methyl-4-tetrazol-1-yl-phenyl)-amide] displayed an EC50 of 3.24 µM.
On to `CCn1c(-c2ccc(N(C)C)cc2)nc2ccccc21` [4-(1-ethyl-2-benzimidazolyl)-N,N-dimethylaniline], for which the EC50 worked out at 0.54 µM.
As to `COc1ccccc1-c1nc(-c2ccncc2)no1` [4-[5-(2-Methoxy-phenyl)-[1,2,4]oxadiazol-3-yl]-pyridine], the response was half-maximal at 1.24 µM (EC50).
Same read-out and setting: the same measure for `Cc1ccccc1Cn1ccc(NC(=O)c2onc(C)c2Cl)n1` [4-chloranyl-3-methyl-N-[1-[(2-methylphenyl)methyl]pyrazol-3-yl]-1,2-oxazole-5-carboxamide]: 7.18 µM.
Still for that read-out and setting: the same measure for `COc1ccc(C(=O)Nc2cc(C)on2)cc1` [4-methoxy-N-(5-methyl-1,2-oxazol-3-yl)benzamide]: 0.918 µM; for `Cc1ccc(-c2nc(C#N)c(NCc3ccco3)o2)cc1` [5-(2-furanylmethylamino)-2-(4-methylphenyl)-4-oxazolecarbonitrile]: 3.42 µM.
Still for that read-out and setting: for `Oc1coc2ccc(OCc3ccc(F)cc3)cc12` [5-(4-fluorobenzyl)oxycoumaran-3-one] the value was 1.71 µM; for `CCOc1ccc(-c2nc(C#N)c(NC3CC3)o2)cc1` [5-(cyclopropylamino)-2-(4-ethoxyphenyl)-1,3-oxazole-4-carbonitrile], 4.02 µM; for `Cc1ccc2nc(Nc3ccc4[nH]c(O)nc4c3)c(-n3nc(C)cc3C)nc2c1` [5-[[3-(3,5-dimethyl-1-pyrazolyl)-6-methyl-2-quinoxalinyl]amino]-1,3-dihydrobenzimidazol-2-one], above 1.22 µM.
Turning to `COc1cccc(NC(=O)c2nnn(Cc3ccc(Br)cc3F)c2N)c1` [5-amino-1-(4-bromo-2-fluoro-benzyl)-N-(3-methoxyphenyl)triazole-4-carboxamide], the EC50 was determined as 4.38 µM.
Consider `O=C(Nc1ccc(N2CCCCC2)cc1)c1cncc(Br)c1` [5-bromanyl-N-(4-piperidin-1-ylphenyl)pyridine-3-carboxamide], for which the midpoint of the response, the EC50, lay at 1.06 µM.
Same read-out and setting: the same measure for `CCOc1cc(N2CCOCC2)c(OCC)cc1NS(=O)(=O)c1ccc(Cl)s1` [5-chloranyl-N-(2,5-diethoxy-4-morpholin-4-yl-phenyl)thiophene-2-sulfonamide]: 1.22 µM.
`CCN(CCCNC(=O)c1cn(CC)c2ccc(S(=O)(=O)N(C)C)cc2c1=O)c1cccc(C)c1` [6-(dimethylsulfamoyl)-1-ethyl-N-[3-(N-ethyl-3-methyl-anilino)propyl]-4-keto-quinoline-3-carboxamide] registered an EC50 above 99 µM.
As to `COC(=O)c1c(NC(=O)CC2SCC(C(=O)OC)NC2=O)sc2c1CCCC2` (configuration not stated) [6-[2-[(3-carbomethoxy-4,5,6,7-tetrahydrobenzothiophen-2-yl)amino]-2-keto-ethyl]-5-keto-thiomorpholine-3-carboxylic acid methyl ester], the EC50 was above 99 µM.
Turning to `Cc1cccn2cc(-c3ccccc3)nc12` [8-methyl-2-phenyl-imidazo[1,2-a]pyridine], the EC50 turned out to be 0.19 µM.
Same read-out and setting: for `Cn1cccc1C(=O)OCc1csc(-c2ccccc2)n1` [(2-phenyl-1,3-thiazol-4-yl)methyl 1-methylpyrrole-2-carboxylate] the value was 0.129 µM.
In turn, `CCOC(=O)CSc1nc2cc(OCC)ccc2cc1C#N` [(3-Cyano-7-ethoxy-quinolin-2-ylsulfanyl)-acetic acid ethyl ester] gave an EC50 of 3.28 µM.
`CC1=CCC(COC(=O)Nc2ccccc2)CC1` (configuration not stated) [(4-methylcyclohex-3-en-1-yl)methyl N-phenylcarbamate] displayed an EC50 of 1.24 µM.
In turn, `CCN(CC)C(=O)Oc1ccc2c(=O)c(-c3ccccc3)coc2c1` [(4-oxidanylidene-3-phenyl-chromen-7-yl) N,N-diethylcarbamate] returned an EC50 of 0.826 µM.
On the same count and under the same terms, for `CCOC(=O)Nc1ccc2c(c1)Nc1ccccc1S2` [(10H-Phenothiazin-2-yl)-carbamic acid ethyl ester] the value was above 3.67 µM.
The compound `C=CCOc1ccc(C=CC(C)N=O)cc1` (configuration not stated) [(E)-4-(4-allyloxyphenyl)but-3-en-2-one oxime] showed an EC50 of 1.02 µM.
Still for that read-out and setting: for `CCOc1ccc(C=CC(C)N=O)cc1` (configuration not stated) [(Z)-4-(4-ethoxyphenyl)-3-buten-2-one oxime] the value was above 0.407 µM; for `CC(C)CNS(=O)(=O)c1ccc(C(=O)Nc2ccc3c(c2)OCCO3)cc1` [MLS000032888], 5.53 µM; for `COc1ccc(C(O)P(=O)(O)CCc2ccccc2)cc1` (configuration not stated) [MLS000038577], above 99 µM.
As for `COc1ccc(C(=O)n2c(-c3ccco3)nc3ccccc32)cc1` [MLS000039368], the midpoint of the response, the EC50, lay at 4.8 µM.
On the same count and under the same terms, the same measure for `COc1ccccc1-c1nnc(NC(C)=O)s1` [MLS000041972]: 1.3 µM; for `CCn1c(Cn2nnc(-c3ccccc3)n2)nnc1SCC(=O)Nc1ccc(C(C)=O)cc1` [MLS000068275]: 2.15 µM; for `CCOc1ccc2nc(NC(=O)c3cnccn3)sc2c1` [MLS000070707]: 0.14 µM.
As for `COc1ccc2nc(NC(=O)CSc3nnc(-c4ccoc4C)n3C)sc2c1` [MLS000073639], the EC50 was 4.83 µM.
Still for that read-out and setting: the same measure for `CCc1nnc2c3cnn(-c4ccccc4)c3ncn12` [MLS000080478]: 5.08 µM; for `O=C(NCc1cccs1)c1noc2c1CCCC2` [MLS000087354]: 5.05 µM.
Consider `Cc1ccc2c(c1)c1c3n2CCCNC3CCC1` (configuration not stated) [MLS000105423], for which the EC50 was above 99 µM.
Same read-out and setting: for `COc1ccc(CCC(=O)Nc2ccc3c(c2)OCCO3)cc1` [MLS000110197] the value was above 99 µM; for `CCOc1ccc2nc(N3CCC(C(=O)N4CCN(c5ccccn5)CC4)CC3)sc2c1` [MLS000119552], above 99 µM; for `O=C(Nc1nnc(C23CC4CC(CC(C4)C2)C3)s1)c1ccco1` [N-[5-(1-adamantyl)-1,3,4-thiadiazol-2-yl]furan-2-carboxamide], 0.257 µM.
As for `O=C(Nc1ccc2nc(-c3ccc(Br)o3)[nH]c2c1)c1cccs1` [SMR000046012], the EC50 amounted to 4.11 µM.
`Oc1ccc(Cl)cc1C=Nc1nc2ccccc2[nH]1` [SMR000103225] came in with an EC50 above 99 µM.
Still for that read-out and setting: for `Cc1nc(N=CN(C)C)sc1C(=O)Nc1ccccc1` [SMR000107046] the value was 6.15 µM.
The compound `Cc1c(C(=O)OCC2CCCO2)[nH]c2c1C(=O)CC(c1ccco1)C2` (configuration not stated) [oxolan-2-ylmethyl 6-(furan-2-yl)-3-methyl-4-oxo-1,5,6,7-tetrahydroindole-2-carboxylate] displayed an EC50 of 1.23 µM. This EC50 lies about 5-fold lower than the previous one.

Still in this test, the particulars now being: inactive by the depositor's call.
With `O=C(NC1CCCC1)c1cc(-c2cccs2)on1` [MLS000087238], the EC50 was 10.9 µM.
`O=C(CSc1nc[nH]n1)Nc1nnc(-c2ccccc2)s1` [SMR000091719] came in with an EC50 of 12.7 µM.
